Earlier results as cited in patent publication US20240016419A1, “ELECTROCHEMICAL GLUCOSE SENSING BY EQUILIBRIUM GLUCOSE BINDING TO GENETICALLY ENGINEERED GLUCOSE BINDING PROTEINS” (Cercacor Laboratories, Inc., priority 2022, published 2024).

## A213R: GGBP with Alanine residue at the 213 position changed to an Arginine residue
A213R versus wild-type GGBP, from 0.2 μM to 1 mM
  binding constant shift: 5000 fold
Binding to glucose, read-out: binding constant
  Kd: 1000 µM
